PMC11306511, “Combining VPS34 inhibitors with STING agonists enhances type I interferon signaling and anti‐tumor efficacy” (Molecular Oncology, 2024)
In brackets after ≈: the same amount, converted by molar mass. Like-named read-outs stand apart in the source and are kept apart here.

Columns and labels:
VPS34 [1] = target: T1, VPS34 (Homo sapiens, UniProt Q8NEB9); experiment: biochemical
Method: (§1) Compound dilution series was prepared in DMSO and further diluted to 4× final assay concentration in assay buffer (Buffer Q #PV5125, Thermo Fisher, supplemented with 2 mM DTT and 2 mM MnCl2). 2.5 μL of the diluted compounds were added to a 384‐well assay plate followed by 2.5 μL of 16.5 nM VPS34 enzyme (#PV5126; Thermo Fisher) and incubated for 15 min. Five microliters of substrate mix (20 μM ATP #PV3227 and 200 μM PI : PS substrate #PV5122; Thermo Fisher) in assay buffer was added, mixed, and incubated for 1 h. Five microliters of stop‐detection mix (Adapta kinase assay #PV5099; Thermo Fisher) were added, mixed, and incubated for 30 min and read with Artemis microplate reader. Percent remaining activity as compared to DMSO‐treated control samples was calculated and IC50 values were generated using […] PRISM (GraphPad Software, Inc., San Diego, CA, USA). The NanoBRET assay was performed using the manufacturer's protocol. Briefly, 293T cells were transfected with the Kinase‐NanoLuc® Fusion Vector DNA overnight. The next day cells were treated with compound and the NanoBRET tracer reagent and then read out measuring donor and acceptor emission wavelength (450 and 610 nm).

VPS34 [2] = target: T1, VPS34; experiment: cell-based
Method: as §1

[3] = Solubility (PBS, FaSSIF, SGF); assay type: physicochemical
Method: (§2) Experiments were conducted at Aragen Life Sciences Ltd. (Hyderabad, India) according to internal standard procedures.

pKa = assay type: physicochemical; details: read-out: pKa (weakly basic)
Method: as §2

Shake flask LogD = assay type: physicochemical
Method: as §2

[4] = CaCo2 monolayer permeability assay; assay type: in vitro ADME; details: human, Caco-2
Method: as §2

CYP3A4 = CYP3A4 (Homo sapiens, UniProt P08684); experiment: CYP inhibition; assay type: in vitro ADME
Method: as §2

PXR = target: T2, PXR (Homo sapiens, UniProt O75469); experiment: CYP3A4 induction, PXR; assay type: in vitro ADME
T2 sequence (O75469 1-434): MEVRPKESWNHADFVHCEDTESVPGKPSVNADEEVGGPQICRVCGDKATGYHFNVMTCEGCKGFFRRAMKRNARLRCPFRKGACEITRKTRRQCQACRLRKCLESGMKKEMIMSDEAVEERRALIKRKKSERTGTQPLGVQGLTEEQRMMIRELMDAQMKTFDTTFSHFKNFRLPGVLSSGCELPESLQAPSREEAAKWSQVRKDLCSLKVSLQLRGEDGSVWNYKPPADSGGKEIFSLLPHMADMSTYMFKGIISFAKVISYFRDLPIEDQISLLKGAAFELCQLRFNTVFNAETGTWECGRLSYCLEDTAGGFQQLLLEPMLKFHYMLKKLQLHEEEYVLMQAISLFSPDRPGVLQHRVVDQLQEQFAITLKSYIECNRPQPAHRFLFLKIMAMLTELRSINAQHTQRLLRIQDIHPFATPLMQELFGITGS
Method: as §2

[5] = Plasma protein binding, mouse; assay type: in vitro ADME; details: unbound/free fraction, read-out: PPB (% unbound) mouse
Method: as §2

[6] = Plasma protein binding, human; assay type: in vitro ADME; details: unbound/free fraction, read-out: PPB (% unbound) human
Method: as §2

In vivo mouse PK = details: in vivo mouse PK
Method: as §2

CYP3A4, sequence (P08684 whole entry): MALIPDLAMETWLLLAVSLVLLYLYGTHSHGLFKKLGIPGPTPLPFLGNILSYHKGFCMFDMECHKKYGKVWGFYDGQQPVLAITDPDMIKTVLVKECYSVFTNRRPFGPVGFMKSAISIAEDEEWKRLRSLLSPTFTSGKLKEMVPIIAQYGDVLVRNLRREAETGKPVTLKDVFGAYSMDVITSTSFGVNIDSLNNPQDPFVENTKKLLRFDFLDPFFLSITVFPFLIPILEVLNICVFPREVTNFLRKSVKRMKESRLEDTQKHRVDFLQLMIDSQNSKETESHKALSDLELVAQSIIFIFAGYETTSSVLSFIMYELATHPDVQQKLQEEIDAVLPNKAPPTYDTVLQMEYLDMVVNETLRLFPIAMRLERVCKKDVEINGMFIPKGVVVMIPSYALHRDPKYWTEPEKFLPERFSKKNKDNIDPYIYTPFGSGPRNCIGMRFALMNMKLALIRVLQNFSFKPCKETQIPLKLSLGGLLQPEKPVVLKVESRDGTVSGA
T1 sequence (Q8NEB9 whole entry): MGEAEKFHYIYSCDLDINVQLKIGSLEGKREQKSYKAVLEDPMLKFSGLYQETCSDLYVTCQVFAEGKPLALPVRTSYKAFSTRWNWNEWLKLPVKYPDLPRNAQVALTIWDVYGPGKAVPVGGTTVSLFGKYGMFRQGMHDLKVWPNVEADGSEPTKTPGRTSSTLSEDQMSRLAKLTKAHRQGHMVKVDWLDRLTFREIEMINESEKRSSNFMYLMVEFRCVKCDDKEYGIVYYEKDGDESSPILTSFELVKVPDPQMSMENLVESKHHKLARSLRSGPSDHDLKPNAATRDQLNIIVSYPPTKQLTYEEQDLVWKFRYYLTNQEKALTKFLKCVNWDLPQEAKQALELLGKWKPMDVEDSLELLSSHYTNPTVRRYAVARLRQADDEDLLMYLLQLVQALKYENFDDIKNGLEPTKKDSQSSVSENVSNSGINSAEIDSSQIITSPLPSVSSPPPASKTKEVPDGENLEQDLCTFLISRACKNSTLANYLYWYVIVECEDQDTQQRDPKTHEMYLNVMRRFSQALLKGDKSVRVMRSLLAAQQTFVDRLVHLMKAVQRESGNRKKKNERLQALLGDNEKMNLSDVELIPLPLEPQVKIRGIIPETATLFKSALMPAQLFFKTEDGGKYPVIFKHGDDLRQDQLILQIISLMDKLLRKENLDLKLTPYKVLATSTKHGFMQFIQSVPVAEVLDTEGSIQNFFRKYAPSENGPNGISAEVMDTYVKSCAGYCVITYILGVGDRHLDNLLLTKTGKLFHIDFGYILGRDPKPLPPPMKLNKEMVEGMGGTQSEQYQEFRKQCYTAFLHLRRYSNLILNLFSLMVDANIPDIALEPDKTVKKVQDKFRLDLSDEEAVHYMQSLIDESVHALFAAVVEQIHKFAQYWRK

IC50 (VPS34 [1]): 5 nM
IC50 (VPS34 [2]): 5.7 nM
solubility in both gastric and small intestinal pH media (in words) [3]: excellent
solubility ([3]; FaSSIF, pH 6.5, fassif, read-out: Solubility FaSSIF, pH 6.5): 890 µM (≈ 307 µg/mL)
solubility ([3]; PBS buffer, pH 7.4, aqueous buffer, read-out: Solubility in PBS buffer, pH 7.4): 175 µM (≈ 60.4 µg/mL)
solubility ([3]; SGF, pH 1.8, simulated gastric fluid, read-out: Solubility SGF, pH 1.8): 2150 µM (≈ 743 µg/mL)
pKa (pKa): 2.2
logD (Shake flask LogD): 1.8
Papp A→B [4]: 51 ×10⁻⁶ cm/s
efflux ratio [4]: 0.9
inhibition of CYP3A (in words) (CYP3A4): weak inhibition
inhibition at 10 µM (CYP3A4; human, 10 μM, 3A4, read-out: Highest CYP inhibition (%) @ 10 μM): 14%
induction of CYP3A4 (in words) (PXR): no induction
fraction unbound [5]: 0.14
fraction unbound [6]: 0.44
Vd (In vivo mouse PK): 2.53 L/kg
clearance (In vivo mouse PK): 26 mL/min/kg
SMILES: C[C@@H]1COCCN1c1cc(N2CCCC[C@@H]2C(F)(F)F)[nH]c(=O)c1 [SB02024]
